According to patent publication US6011052A, “Pyrazolone derivatives as MCP-1 antagonists” (Warner-Lambert Company, priority 1997, dated 2000):

What was measured:
[1] = test system: rat T cells, skin DHR sites; test: T cell recruitment at sites of cutaneous delayed hypersensitivity (DHR) to KLH in rats; type: in vivo, rat (Lewis); conditions: 24 hours
Method: Inbred, approximately 200 gm, male Lewis rats were used in all experiments. Cutaneous delayed hypersensitivity (DHR) was induced as previously described (1). Briefly, rats were sensitized to KLH (keyhole limpet hemocyanis) (Sigma Chemical Co., St. Louis, Mo.) by administering 50 μg KLH in 0.1 ml complete Freund's adjuvant (CFA; Sigma Chemical Co.) into each of 4 subcutaneous sites. After 14 days, DHR was elicited by the challenge of 5 μg KLH in PBS into multiple intradermal sites on the back. Analysis was performed 24 hours after antigen challenge. For each experiment, there were at least three groups of animals of at least four animals in each group. […]
T cell recruitment at sites of DHR was quantified using methods previously described (1-4). […] The cells in the effluent were highly purified (>95%) rat T cells as assessed by anti-rat CD3 (monoclonal antibody KT3, Biosource International, Camarillo, Calif.) immunoreactivity by flow cytometry. […] Skin challenge sites (8 mm in diameter) were counted on a γ counter 24 hours after injection of radiolabeled T cells. Lung, liver, and spleen were also collected and counted as comparative indices for evaluation of input.
Statistical significance was determined using a paired student's t-test. […]

[2] = test system: CD3-Blast (MCP-1 mediated chemotaxis); test: MCP-1 mediated CD3-Blast chemotaxis assay (transendothelial migration over ECV304 cells); type: cell-based; conditions: Homo sapiens, ECV-304; for inhibition at 10 µM: range given for multiple replications
Method: Recombinant human MCP-1 was obtained from Peprotech (Rockey Hill, N.J.). […] RBCs were removed by hypotonic lysis. […] The cells are expanded and cultured for up to 3 weeks. […] The endothelial cells used for this assay were the endothelial cell line ECV304, obtained from the ECACE (Porton Downs, UK). Endothelial cells were cultured on 6.5 mm diameter Transwell culture inserts (Costar) with a […] pore size. […] Twenty four hours before the assay, 2×10^5 ECV304 cells were plated onto each innert of the 24 well chemotaxis plate and incubated at 37° C. MCP-1 (diluted in assay medium) with or without compounds, was added to the 24-well tissue culture plates in a final volume of […]. […] The cells that had migrated to the bottom chamber were enumerated using flow cytommetry. […] of the cell suspension from the lower chamber was placed in a tube, and relative cell counts were obtained by acquiring events for a set time period of 30 seconds. […] Background migration was determined by counting cells that migrated in the absence of MCP-1 in the lower chamber. This background migration of cells per 30 second count was substrated from the migration to MCP-1 to obtain specific migration. The percent inhibition by compounds of directed migration was determined by the following formula: 1 minus the specific migration in the presence of MCP-1 and compound, divided by the specific migration in the presence of just MCP-1. [drawing 13]

skin DHR sites = test: Histologic analysis of skin DHR sites in rats; type: in vivo, rat (Lewis); conditions: 15 mg/kg per os, compared to sensitized animals given vehicle alone
Method: Inbred, approximately 200 gm, male Lewis rats were used in all experiments. Cutaneous delayed hypersensitivity (DHR) was induced as previously described (1). Briefly, rats were sensitized to KLH (keyhole limpet hemocyanis) (Sigma Chemical Co., St. Louis, Mo.) by administering 50 μg KLH in 0.1 ml complete Freund's adjuvant (CFA; Sigma Chemical Co.) into each of 4 subcutaneous sites. After 14 days, DHR was elicited by the challenge of 5 μg KLH in PBS into multiple intradermal sites on the back. Analysis was performed 24 hours after antigen challenge. For each experiment, there were at least three groups of animals of at least four animals in each group. One group of nonsensitized, naive animals was used as a negative control and received vehicle alone (consisting of 0.5% hydroxypropylmethylcellulose/0.2% Tween 80 in water) per os at the time of challenge. As positive controls, one group of sensitized animals received vehicle alone per os at the time of KLH challenge. A third group consisted of sensitized animals that received compound suspended in vehicle per os at the time of KLH challenge.
For histologic analysis, representative skin specimens were fixed in 10% phosphate-buffered formalin, processed by routine histological techniques, cut at a thickness of […], and sections stained with hematoxylin and eosin.

MCP-1 receptor = target: T1, MCP-1 receptor (Homo sapiens, UniProt P41597); test: MCP-1 binding assay (125I-labeled MCP-1, THP-1 cell membranes); conditions: for IC50: THP-1 membranes, 0.2 nM 125I-MCP-1, 30 minutes at room temperature, read-out: Inhibition of MCP-1 Binding IC50; for inhibition at 10 µM: printed in the IC50 μM column, read-out: Inhibition of MCP-1 Binding, percent @ 10 μM
T1 construct: endogenous in cells; host or cells: THP-1 cells (ATCC TIB 202), selected for increased MCP-1 receptor expression
T1 sequence (P41597 1-360 isoform P41597-2): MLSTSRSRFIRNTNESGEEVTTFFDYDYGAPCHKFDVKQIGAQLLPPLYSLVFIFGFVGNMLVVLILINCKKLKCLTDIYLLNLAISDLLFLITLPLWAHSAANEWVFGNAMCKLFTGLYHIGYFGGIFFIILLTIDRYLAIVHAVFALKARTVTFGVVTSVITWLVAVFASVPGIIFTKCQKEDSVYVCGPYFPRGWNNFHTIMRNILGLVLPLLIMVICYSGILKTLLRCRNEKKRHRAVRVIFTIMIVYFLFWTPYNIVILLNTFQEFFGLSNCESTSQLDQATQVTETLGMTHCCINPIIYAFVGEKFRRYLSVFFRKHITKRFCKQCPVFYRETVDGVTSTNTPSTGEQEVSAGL
Method: Membranes used in the MCP-1 binding assay were prepared from THP-1 cells (human monocytic cell line source--American Type Culture Collection, Tumor Immunology Bank #202, Rockville, Md., accession no. ATCC TIB 202) selected for increased levels of expression of the MCP-1 receptor. Cells were harvested by centrifugation and washed twice in ice-cold PBS (phosphate-buffered saline) and the cell pellet was frozen at -80° C. in some cases. Cells were resuspended in ice-cold lysis buffer 5 mM HEPES (2-(4N-[2-hydroxyethyl] piperazin-1-yl)-N'-(2-ethanesulfonic acid), pH 7.5, 2 mM EDTA (ethylenediaminetetraacetic acid), 5 ug/ml each leupeptin, aprotinin, chymostatin (protease inhibitors), and 100 ug/ml PMSF (phenylmethane sulfonyl fluoride--also a protease inhibitor)) at a concentration of 5×10^7 cells/ml. The cell suspension was dounced 10-15 times using the B pestle (small pestle of tissue grinder--clearance is 0.07 mm; source--Fisher Scientific) on ice. Nuclei and debris were removed by centrifugation at 500-1000×g for 10 minutes at 4° C. The supernatant was transferred to a fresh tube and centrifuged at 25,000×g for 30 minutes at 4° C. The supernatant was aspirated and the pellet was resuspended in freezing buffer (10 mM HEPES, pH 7.5, 300 mM sucrose, 1 ug/ml each leupeptin, aprotinin, chymostatin, and 10 ug/ml PMSF) using a minihomogenizer until all clumps were resolved. Membranes were aliquoted and frozen at minus 70-85° C. until needed. Typical binding assays used 10-20 ug/well of total membrane protein as determined with a standard protein assay (e.g. BioRad, Richmond, Calif.) or: as determined with a Bradford protein assay (e.g. BioRad, Richmond, Calif.).
For binding, different amounts of membranes were included in the binding reaction along with 0.2 nM I^125 -labeled MCP-1 (Amersham, Arlington Heights, Ill.) with or without unlabeled cold competitor MCP-1 (Peprotech, Rocky Hill, N.J.) (at 500 nM). Binding reactions were performed in a final volume of 100 ul in a binding buffer containing 10 mM HEPES, pH 7.2, 1 mM CaCl2, 5 mM MgCl2, 0.5% BSA (bovine serum albumin). After 30 minutes at room temperature, the binding reactions were filtered through GF/C filters (Whatman glass fiber filters, Type C) or GF/B unifilter plates (Parkard) which had been pre-soaked with 0.3% poly ethyleneimine and washed twice with binding buffer containing 0.5 M NaCl. Filters were dried and counted in a Beta-Plate scintillation counter using standard scintillation fluid. Final concentration of compound in the binding assay ranged from 0.05-100 μM. Compounds were dissolved in DMSO (dimethyl sulfoxide). Final concentrations of DMSO in the binding were kept constant at 0.05%.
IC50s were calculated using a 3-parameter logistic fit. Negative control contained same amount of DMSO vehicle asused in wells containing compound. Positive control contained 500 nM cold competitor MCP-1 in DMSO vehicle.

Compound | IC50 (MCP-1 receptor) | inhibition at 10 µM [2] | further results
Nc1c(C2CCCCC2)[nH][nH]c1=O [Example 1, 4-Amino 5-Cyclohexyl-3-Pyrazolone] | 1270 nM | 33 to 70% | statistical significance of inhibition of T cell recruitment in rat DHR ([1]; 15 mg/kg per os at the time of antigen challenge): statistically significant inhibitory effect; inhibition of recruitment of 111In-labeled rat T cells to skin DHR sites ([1]; once per os at the time of antigen challenge, various doses (FIG. 3)): inhibited the recruitment of ^III In-labeled rat T cells to skin DHR sites in a dose-dependent fashion; inflammatory activity of skin sites (histology) (skin DHR sites): attenuated in inflammatory activity; mononuclear cells infiltration in deep dermis (histology) (skin DHR sites): reduced mononuclear cells infiltration in deep dermis
Nc1c(-c2ccncc2)[nH][nH]c1=O [Example 3] |  | 5 to 49% | inhibition at 10 µM (MCP-1 receptor): 95%
Nc1c(-c2ccccc2)n[nH]c1O [Example 4] | 730 nM | 58 to 61% | 
Cn1[nH]c(=O)c(N)c1-c1ccccc1 [Example 5] |  | -23 to 48% | inhibition at 10 µM (MCP-1 receptor): 90%
COc1ccc(-c2[nH]nc(O)c2N)cc1 [Example 6] | 1490 nM |  | 
Cc1[nH][nH]c(=O)c1N [Example 10] |  | 25 to 27% | 

More lines, main results first:

IC50 (MCP-1 receptor) | Compound | inhibition at 10 µM [2] | further results
1650 nM | Nc1c[nH]nc1O [Example 9] |  | 
2270 nM | Cc1c(N)c(=O)n(-c2ccccc2)n1C [Example 13] |  | 
6240 nM | NC(=O)c1[nH]n(-c2ccc(Cl)cc2Cl)c(=O)c1N [Example 19] |  | IC50 ([2]; unit inferred, read-out: Inhibition of MCP-1 mediated chemotaxis of CD3-Blast, IC50): 480 nM
5640 nM | Oc1[nH]nc2c1NCCC2 [Example 37] |  | 
